Patent publication US10874743B2, “IRAK degraders and uses thereof” (Kymera Therapeutics, Inc., priority 2017, dated 2020)

Biological target: T1, IRAK4 (Homo sapiens, UniProt Q9NWZ3)
T1 sequence (Q9NWZ3 1-460): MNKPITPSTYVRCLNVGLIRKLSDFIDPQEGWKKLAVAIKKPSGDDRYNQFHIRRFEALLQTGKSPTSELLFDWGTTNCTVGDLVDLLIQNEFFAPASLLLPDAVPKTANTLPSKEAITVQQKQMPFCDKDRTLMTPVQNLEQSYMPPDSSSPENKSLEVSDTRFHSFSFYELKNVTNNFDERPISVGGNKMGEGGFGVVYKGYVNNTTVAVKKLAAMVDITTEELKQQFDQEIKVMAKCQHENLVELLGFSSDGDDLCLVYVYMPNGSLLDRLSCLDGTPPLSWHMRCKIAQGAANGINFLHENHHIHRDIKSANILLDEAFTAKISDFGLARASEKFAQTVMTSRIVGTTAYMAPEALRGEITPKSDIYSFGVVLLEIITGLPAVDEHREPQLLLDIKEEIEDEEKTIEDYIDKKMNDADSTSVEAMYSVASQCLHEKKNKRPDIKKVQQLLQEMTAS
Test: OCI-LY-10 degradation assay (western blot, % IRAK4 degraded after 4 hours)
Type: cell-based
Design: endogenous in cells; host or cells: OCI-LY10
Settings: OCI-LY10 cells; for OCI-LY10 % IRAK4 Degradation (0.01 uM) / OCI-LY10 % IRAK4 Degradation (0.1 uM) / OCI-LY10 % IRAK4 Degradation (1 uM): 4 hours; for OCI-LY10 % IRAK4 Degradation (0.01 uM): 0.01 uM compound; for OCI-LY10 % IRAK4 Degradation (0.1 uM): 0.1 uM compound; for OCI-LY10 % IRAK4 Degradation (1 uM): 1 uM compound; for OCI-LY10 % IRAK4 Degradation: IRAK4 degraded after 4 hours, western blot
In short: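 IRAK4 loss after 4 h at 37° C was scored A (>50%), B (>20-50%) or C (<20%) from infrared western blots of RIPA lysates, 20-25 μg protein per lane. Compound was applied at 0.003-10 μM final to OCI-LY10 cells cultured in RPMI-1640 with 20% FBS and 55 μM 2-ME.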

| OCI-LY10 % IRAK4 Degradation (0.01 uM) | OCI-LY10 % IRAK4 Degradation (0.1 uM) | OCI-LY10 % IRAK4 Degradation (1 uM) | OCI-LY10 % IRAK4 Degradation | Compound |
| --- | --- | --- | --- | --- |
| B (>20-50% degradation) | B (>20-50% degradation) | C (<20% degradation) |  | CN(CCCc1cccc2c1C(=O)N(C1CCC(=O)NC1=O)C2=O)Cc1ccc(-n2cc(NC(=O)c3coc(-c4ccnc(NCC5CC5)c4)n3)c(C(F)F)n2)cc1 (stereo not drawn) [I-355] |
| B (>20-50% degradation) | A (>50% degradation) | A (>50% degradation) |  | CC[C@@H]1[C@H](F)C(=O)N[C@@H]1COc1ncc(C#Cc2ccc(OCCOCCOCCOCCNc3cccc4c3C(=O)N(C3CCC(=O)NC3=O)C4=O)cc2)c2cc(C(N)=O)c(OC)cc12 (stereo partly drawn) [I-425, 4-[2-[4-[2-[2-[2-[2-[[2-(2,6-Dioxo-3-piperidyl)-1,3-dioxo-isoindolin-4-yl]amino]ethoxy]ethoxy]ethoxy]ethoxy]phenyl]ethynyl]-1-[[(2S,3S,4S)-3-ethyl-4-fluoro-5-oxo-pyrrolidin-2-yl]methoxy]-7-methoxy-isoquinoline-6-carboxamide] |
| C (<20% degradation) | A (>50% degradation) | A (>50% degradation) |  | O=C1CCC(N2C(=O)c3ccc(OCCc4cnnn4CCOCCOCCNCc4ccc(-n5cc(NC(=O)c6coc(-c7ccnc(NCC8CC8)c7)n6)c(C(F)F)n5)cc4)cc3C2=O)C(=O)N1 (stereo not drawn) [I-347] |
| C (<20% degradation) | C (<20% degradation) | C (<20% degradation) |  | CN(CCOCCCc1cccc2c1C(=O)N(C1CCC(=O)NC1=O)C2=O)Cc1ccc(-n2cc(NC(=O)c3coc(-c4ccncc4)n3)c(C(F)F)n2)cc1 (stereo not drawn) [I-363] |
| C (<20% degradation) | C (<20% degradation) | B (>20-50% degradation) |  | O=C1CCC(N2C(=O)c3ccc(CCCOCCNCc4ccc(-n5cc(NC(=O)c6coc(-c7ccncc7)n6)c(C(F)F)n5)cc4)cc3C2=O)C(=O)N1 (stereo not drawn) [I-382] |
| C (<20% degradation) | C (<20% degradation) | C (<20% degradation) |  | O=C1CCC(N2C(=O)c3cccc(CCCNCc4ccc(-n5cc(NC(=O)c6coc(-c7ccnc(NCC8CC8)c7)n6)c(C(F)F)n5)cc4)c3C2=O)C(=O)N1 (stereo not drawn) [I-357] |
| C (<20% degradation) | B (>20-50% degradation) | B (>20-50% degradation) |  | O=C1CCC(N2C(=O)c3cccc(NC4CCN(CCOCCNCc5ccc(-n6cc(NC(=O)c7coc(-c8ccnc(NCC9CC9)c8)n7)c(C(F)F)n6)cc5)CC4)c3C2=O)C(=O)N1 (stereo not drawn) [I-385] |
| C (<20% degradation) | C (<20% degradation) | C (<20% degradation) |  | O=C1CCC(N2C(=O)c3cccc(CCCNCc4ccc(-n5cc(NC(=O)c6coc(-c7ccnc(NCC(F)(F)F)c7)n6)c(C(F)F)n5)cc4)c3C2=O)C(=O)N1 (stereo not drawn) [I-361] |

More lines, now with the values behind:

| Compound | OCI-LY10 % IRAK4 Degradation (0.01 uM) | OCI-LY10 % IRAK4 Degradation (0.1 uM) | OCI-LY10 % IRAK4 Degradation (1 uM) | OCI-LY10 % IRAK4 Degradation |
| --- | --- | --- | --- | --- |
| CC(C)(OCCOCCOCCOCCOCCNc1cccc2c1C(=O)N(C1CCC(=O)NC1=O)C2=O)C(F)CNC(=O)c1cnc(-n2ncc3cc(C#N)cnc32)cc1NC1CC1 (stereo not drawn) [I-60] |  |  |  | C (<20% degradation) |
| NC(=O)c1nn(-c2cccc(C(=O)NCCOCCOCCOCCOCCNc3cccc4c3C(=O)N(C3CCC(=O)NC3=O)C4=O)c2)cc1NC(=O)c1coc(-c2ccnc(NCC(F)(F)F)c2)n1 (stereo not drawn) [I-136] |  |  |  | B (>20-50% degradation) |
| CN(CCOCCOCCNc1cccc2c1C(=O)N(C1CCC(=O)NC1=O)C2=O)C(=O)[C@H]1CC[C@H](NC(=O)c2cnc(-n3ncc4cc(C#N)cnc43)cc2NC2CC2)CC1 (stereo partly drawn) [I-42, 6-(5-cyano-1H-pyrazolo[3,4-b]pyridin-1-yl)-4-(cyclopropylamino)-N-((1r,4r)-4-((2-(2-(2-((2-(2,6-dioxopiperidin-3-yl)-1,3-dioxoisoindolin-4-yl)amino)ethoxy)ethoxy)ethyl) (methyl)carbamoyl)cyclohexyl)nicotinamide] |  |  |  | C (<20% degradation) |
| N#Cc1cnc2c(cnn2-c2cc(NC3CC3)c(C(=O)NCC(F)COCCOCCOCCOCCNc3cccc4c3C(=O)N(C3CCC(=O)NC3=O)C4=O)cn2)c1 (stereo not drawn) [I-72] |  |  |  | C (<20% degradation) |
| NC(=O)c1nn(-c2ccc(C(=O)NCCOCCOCCNc3cccc4c3C(=O)N(C3CCC(=O)NC3=O)C4=O)cc2)cc1NC(=O)c1cccc(-c2ccnc(NCC(F)(F)F)c2)n1 (stereo not drawn) [I-137] |  |  |  | B (>20-50% degradation) |
| N#Cc1cnc2c(cnn2-c2cc(NC3CC3)c(C(=O)N[C@H]3C[C@H](COCCOCCOCCOCCOCCNc4cccc5c4C(=O)N(C4CCC(=O)NC4=O)C5=O)C3)cn2)c1 (stereo partly drawn) [I-36] |  |  |  | C (<20% degradation) |
| O=C1CCC(N2C(=O)c3cccc(NCCc4cnnn4CCOCCOCCNCc4ccc(-n5cc(NC(=O)c6coc(-c7ccnc(NCC8CC8)c7)n6)c(C(F)F)n5)cc4)c3C2=O)C(=O)N1 (stereo not drawn) [I-342] | C (<20% degradation) | B (>20-50% degradation) | A (>50% degradation) |  |
| NC(=O)c1nn(-c2ccc(C(=O)NCC#CC#CCNc3cccc4c3C(=O)N(C3CCC(=O)NC3=O)C4=O)cc2)cc1NC(=O)c1coc(-c2ccnc(NCC(F)(F)F)c2)n1 (stereo not drawn) [I-177, N-[3-carbamoyl-1-[4-[6-[[2-(2,6-dioxo-3-piperidyl)-1,3-dioxo-isoindolin-4-yl]amino]hexa-2,4-diynylcarbamoyl]phenyl]pyrazol-4-yl]-2-[2-(2,2,2-trifluoroethylamino)-4-pyridyl]oxazole-4-carboxamide] |  |  |  | C (<20% degradation) |
| CC(OCCNc1cccc2c1C(=O)N(C1CCC(=O)NC1=O)C2=O)C(F)CNC(=O)c1cnc(Nc2ccc3cnccc3n2)cc1NC1CC1 (stereo not drawn) [I-77] |  |  |  | C (<20% degradation) |
| N[C@@H]1CCCC[C@@H]1Nc1ccn2nc(-c3cn(-c4ccc(C(=O)NCCOCCOCCNc5cccc6c5C(=O)N(C5CCC(=O)NC5=O)C6=O)cc4)nc3C(F)F)cc2n1 (stereo partly drawn) [I-142] |  |  |  | B (>20-50% degradation) |
| CC(C)(OCCOCCOCCNc1cccc2c1C(=O)N(C1CCC(=O)NC1=O)C2=O)C(F)CNC(=O)c1cnc(-n2ncc3cc(C#N)cnc32)cc1NC1CC1 (stereo not drawn) [I-59] |  |  |  | C (<20% degradation) |
| Cc1ccc(NS(=O)(=O)c2ccc(CNC(=O)COCCOCCOCCOCCOCCNC(=O)c3ccc(-n4cc(NC(=O)c5coc(-c6ccnc(NCC(F)(F)F)c6)n5)c(C(N)=O)n4)cc3)cc2)c2[nH]cc(C#N)c12 [I-114] |  |  |  | C (<20% degradation) |
| CC(C)(OCCOCCOCCNc1cccc2c1C(=O)N(C1CCC(=O)NC1=O)C2=O)C(F)CNC(=O)c1cnc(Nc2ccc3cnccc3n2)cc1NC1CC1 (stereo not drawn) [I-56] |  |  |  | C (<20% degradation) |
| NC(=O)c1nn(Cc2cn(CCOCCOCCNc3cccc4c3C(=O)N(C3CCC(=O)NC3=O)C4=O)nn2)cc1NC(=O)c1coc(-c2ccnc(NCC3CC3)c2)n1 (stereo not drawn) [I-304, N-[3-carbamoyl-1-[[1-[2-[2-[2-[[2-(2,6-dioxo-3-piperidyl)-1,3-dioxo-isoindolin-4-yl]amino]ethoxy]ethoxy]ethyl]triazol-4-yl]methyl]pyrazol-4-yl]-2-[2-(cyclopropylmethylamino)-4-pyridyl]oxazole-4-carboxamide] | C (<20% degradation) | C (<20% degradation) | C (<20% degradation) |  |
